We go through two compounds from patent publication US20230073781A1, “Systemic administration of peptides for the treatment of spinal cord injury and/or for remyelination” (AXOLTIS PHARMA, priority 2019, published 2023).

Where a SMILES comes first, the peptide text is derived from it. Bridges are numbered along the chain shown (N, C = ends).

The nature of series [1]: In vitro conversion in rat plasma. Format: in vitro ADME. Conditions: preliminary.
Series [2] can be described thus: Preliminary PK study in rat. Format: in vivo. Conditions: slow bolus IV injection of 49 mg/kg of NX210. On the procedure: Therefore, NX210 PK in animals is followed by the measurement of its cyclic form NX218. First a preliminary PK study in rat was performed in order to validate the method for detecting NX218 in plasma then translated to monkey by performing a more robust PK study with repeated experiments. All PK studies were performed with NaCl 0.9% as vehicle.

Take `N=C(N)NCCC[C@H](NC(=O)[C@H](CO)NC(=O)[C@H](CS)NC(=O)[C@H](CO)NC(=O)[C@H](CO)NC(=O)[C@H](Cc1c[nH]c2ccccc12)NC(=O)CNC(=O)[C@H](CO)NC(=O)[C@@H](N)Cc1c[nH]c2ccccc12)C(=O)N[C@@H](CO)C(=O)N[C@@H](CS)C(=O)NCC(=O)O` [NX210, W-S-G-W-S-S-C-S-R-S-C-G] (H-WSGWSSCSRSCG-OH): the “conversion by oxidation in rat plasma” value in series [1] was “rapidly converted into NX218”.

In the case of `N=C(N)NCCC[C@@H]1NC(=O)[C@H](CO)NC(=O)[C@@H](NC(=O)[C@H](CO)NC(=O)[C@H](CO)NC(=O)[C@H](Cc2c[nH]c3ccccc23)NC(=O)CNC(=O)[C@H](CO)NC(=O)[C@@H](N)Cc2c[nH]c3ccccc23)CSSC[C@@H](C(=O)NCC(=O)O)NC(=O)[C@H](CO)NC1=O` [NX218] (H-WSGWSSCSRSCG-OH; disulfide 7-11), the “plasma concentration of NX218 over time” value in series [2] is reported as “impossible to quantify from 3 hours”.
